Measurements: ChEMBL document CHEMBL4732143 (Eur J Med Chem, 2021)

Key:
[1] = target: T1, Sphingosine kinase 2 (Homo sapiens) (UniProt Q9NRA0); experiment: Inhibition of recombinant human Sphk2 expressed in baculovirus infected Sf9 insect cells assessed as residual activity at 0.3 uM using d-erythro-sphingosine as substrate measured after 20 mins in presence of [gamma-32P]ATP by liquid scintillation counting analysis relative to control
T1 sequence (whole entry): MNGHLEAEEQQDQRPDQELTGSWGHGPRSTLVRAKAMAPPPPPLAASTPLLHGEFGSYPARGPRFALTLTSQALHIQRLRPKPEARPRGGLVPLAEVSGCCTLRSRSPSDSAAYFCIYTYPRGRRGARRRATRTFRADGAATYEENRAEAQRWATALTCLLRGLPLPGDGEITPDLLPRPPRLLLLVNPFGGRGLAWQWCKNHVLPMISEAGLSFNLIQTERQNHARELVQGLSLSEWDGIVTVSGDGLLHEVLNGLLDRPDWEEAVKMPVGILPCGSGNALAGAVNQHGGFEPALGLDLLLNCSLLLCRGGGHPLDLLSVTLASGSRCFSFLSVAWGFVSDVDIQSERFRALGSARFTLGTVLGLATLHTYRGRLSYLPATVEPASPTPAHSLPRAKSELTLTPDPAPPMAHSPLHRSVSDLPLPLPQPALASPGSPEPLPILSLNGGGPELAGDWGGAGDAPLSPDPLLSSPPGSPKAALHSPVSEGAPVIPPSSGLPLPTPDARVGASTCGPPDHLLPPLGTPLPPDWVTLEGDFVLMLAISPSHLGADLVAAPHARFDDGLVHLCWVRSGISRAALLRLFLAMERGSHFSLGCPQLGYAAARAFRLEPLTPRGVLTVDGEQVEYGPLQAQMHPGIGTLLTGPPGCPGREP

Sphingosine kinase 2 = target: T2, Sphingosine kinase 2 (Homo sapiens, UniProt Q9NRA0); experiment: Inhibition of recombinant human Sphk2 expressed in baculovirus infected Sf9 insect cells using d-erythro-sphingosine as substrate measured after 20 mins in presence of [gamma-32P]ATP by liquid scintillation counting analysis
T2 sequence (Q9NRA0 whole entry): T1 sequence (whole entry)

[2] = target: T1, Sphingosine kinase 2 (Homo sapiens); experiment: Inhibition of Sphk2 in human U-937 cells using FTY720 as substrate measured after 2 hrs by LC-MS analysis; type: cell-based; details: dose 0.1-1 µM
[3] = target: T1, Sphingosine kinase 2 (Homo sapiens); experiment: Inhibition of recombinant human Sphk2 expressed in yeast strain KYA1 assessed as increase in yeast growth measured after 24 hrs

Row | Activity [1] | SMILES | further results
1 | 64% | CCCCCCCCCCn1ccc2c(-c3noc([C@@H]4CCCN4C(=N)N)n3)cccc21 | –
2 | 89% | CCCCCCCn1ccc2c(-c3noc([C@@H]4CCCN4C(=N)N)n3)cccc21 | –
3 | 93% | CCCCCCCCn1ccc2ccc(-c3noc([C@@H]4CCCN4C(=N)N)n3)cc21 | –
4 | 68% | CCCCCCCCCCn1ccc2ccc(-c3noc([C@@H]4CCCN4C(=N)N)n3)cc21 | –
5 | 72% | CCCCCCn1ccc2cc(-c3noc([C@@H]4CCCN4C(=N)N)n3)ccc21 | –
6 | 87% | CCCCCCCCn1ccc2cc(-c3noc([C@@H]4CCCN4C(=N)N)n3)ccc21 | –
7 | 31% | CCCCCCCCCCn1ccc2cc(-c3noc([C@@H]4CCCN4C(=N)N)n3)ccc21 | Ki (Sphingosine kinase 2): 120 nM
8 | 79% | CCCCCCCCCn1ccc2ccc(-c3noc([C@@H]4CCCN4C(=N)N)n3)cc21 | –
9 | 84% | CCCCCCCCn1ccc2c(-c3noc([C@@H]4CCCN4C(=N)N)n3)cccc21 | –
10 | 93% | CCCCCCCn1ccc2cc(-c3noc([C@@H]4CCCN4C(=N)N)n3)ccc21 | –
11 | 25% | CCCCCCCCCn1ccc2cc(-c3noc([C@@H]4CCCN4C(=N)N)n3)ccc21 | inhibition [2]: Dose-dependent effect; Ki (Sphingosine kinase 2): 90 nM; inhibition [3]: Dose-dependent effect
12 | 95% | CCCCOc1ccc2cc(-c3noc([C@@H]4CCCN4C(=N)N)n3)ccc2c1 | Ki (Sphingosine kinase 2): 980 nM
13 | 68% | CCCCCCCCCn1ccc2c(-c3noc([C@@H]4CCCN4C(=N)N)n3)cccc21 | –
14 | 103% | CCCCCCCn1ccc2ccc(-c3noc([C@@H]4CCCN4C(=N)N)n3)cc21 | –

Row | SMILES | Activity [1] | further results
15 | CCCCCCCCCCn1cc(-c2noc([C@@H]3CCCN3C(=N)N)n2)c2ccccc21 | 47% | Ki (Sphingosine kinase 2): 300 nM
16 | CCCCCCCCCn1cc(-c2noc([C@@H]3CCCN3C(=N)N)n2)c2ccccc21 | 59% | –
17 | CCCCCCCn1cc(-c2noc([C@@H]3CCCN3C(=N)N)n2)c2ccccc21 | 96% | –
18 | CCCCCCCCCCCn1cc(-c2noc([C@@H]3CCCN3C(=N)N)n2)c2ccccc21 | 79% | –
19 | CCCCCCCCn1cc(-c2noc([C@@H]3CCCN3C(=N)N)n2)c2ccccc21 | 73% | –
20 | CCCCCCCCCCCCn1cc(-c2noc([C@@H]3CCCN3C(=N)N)n2)c2ccccc21 | 46% | Ki (Sphingosine kinase 2): 290 nM
21 | CCCCCCCCCn1cc(-c2noc(C[C@@H]3CCCN3C(=N)N)n2)c2ccccc21 | 98% | –
